Measured values reported in patent US9822382B2, “Process for making ethanol by fermentation” (Evonik Degussa GmbH, priority 2014, dated 2017).

What was measured:
Yeast = Yeast viability and yeast flocculation in fermented mash, sugar cane ethanol production mill trial; format: cell-based
Description: (§1) Bacterial and yeast cell counts, yeast cell viability and yeast flocculation were determined as described in A. J. Oliveira et al., Curso de treinamento em microbiologia, Piracicaba: FERMENTEC and ESALQ, 1996 and in A. J. Oliveira et al., Métodos para o controle microbiológico na produção de açúcar e álcool, Piracicaba: FERMENTEC, FEALQ and ESALQ, 1996. Bacterial infection rates were calculated as the ratio of the rod bacteria cell count and the yeast cell count.
Examples 9 to 11 were carried out in a sugar cane ethanol production mill operating 6 fermenters in fed-batch. The fermented mash is sent to a centrifuge which separates yeast cream with an average yeast content of 63% by weight. The yeast cream is diluted with water to an average yeast content of 27% by weight and transferred to a stirred yeast cream recovery tank. Diluted yeast cream is passed continuously from this tank to a stirred yeast treatment tank at a rate of from 42 to 127 m^3/h. Sulfuric acid is added to the yeast treatment tank to maintain a pH in the range from 1.8 to 2.8. The average residence time in both the yeast cream recovery tank and the yeast treatment tank is in the range of from 1.3 to 4.0 h. Fermentation is carried out by charging the acidified yeast concentrate to a fermenter over a 1 to 2 h period, followed by feeding sugar cane mash with a sugar content of 22° Brix and a pH of 5.8 to the fermenter over a 6 h period. Fermentation is continued for a further 2 h without feed and the fermented mash is sent to a centrifuge. Bacterial contamination was monitored by microbiological analysis of samples of fermented mash taken before feeding the mash to a centrifuge. Samples were analyzed for bacterial and yeast cell counts and for yeast cell viability and yeast flocculation.
In example 9, equilibrium peroxyacetic acid PERACLEAN® 15 of Evonik was dosed to the yeast treatment tank for 28 h in an amount of 60 ppm during days 3 and 4 of the experiment. pH in the yeast treatment tank was maintained in the range of from 1.84 to 2.02.
In example 10, equilibrium peroxyacetic acid PERACLEAN® 15 of Evonik was dosed to the yeast treatment tank for 43 h during days 6 and 7 of the experiment in an amount that was lowered stepwise from 49 ppm to 20 ppm. pH in the yeast treatment tank was maintained in the range of from 1.97 to 2.60.
In example 11, equilibrium peroxyacetic acid PERACLEAN® 15 of Evonik was dosed to the yeast cream recovery tank on days 2 and 3 of the experiment for 13 h in an amount of 50 ppm, followed by dosing for 28 h in an amount of 30 ppm. During this period the pH in the yeast cream recovery tank was in the range of from 3.0 to 3.3. Then dosing of peroxyacetic acid to the yeast cream recovery tank was stopped and peroxyacetic acid was dosed to the yeast treatment tank for 18 h in an amount of 30 ppm. During this period the pH in the yeast treatment tank was about 2.0.

Rod bacteria = Rod bacteria cell count and infection rate, laboratory treatment of yeast cream and fermentation; format: cell-based
Description: as §1
The examples were carried out with a yeast cream obtained by separating yeast from a fermented sugar cane mush from a sugar cane ethanol production mill operating with batch fermentation and yeast recycle. The yeast cream was diluted with water to a yeast cell content of about 24% by weight and the pH of the diluted yeast cream was adjusted to a value of 1.8 by adding sulfuric acid.
Then 322 ml of acidified diluted yeast cream were placed in a vessel and 678 ml of cane must having a pH of 6.2 were added with mixing in 5 portions with 1 h intervals between additions. Fermentation of the cane must with the acidified diluted yeast cream was carried out at 33° C. for 21 h. The final pH of the fermented mash was 4.8.
In example 2, equilibrium peroxyacetic acid PERACLEAN® 15 of Evonik was added to the acidified diluted yeast cream in an amount of 50 mg/l and the resulting treated yeast concentrate was kept at 30° C. for 1.7 hours before it was analyzed microbiologically. Thereafter, fermentation was carried out as in example 1.
Examples 1 and 2 were repeated without adding peroxyacetic acid in example 3 and with addition of equilibrium peroxyacetic acid PERACLEAN® 15 in an amount of 60 mg/l peroxyacetic acid in example 4. The treated yeast cream was kept at 30° C. for 2 hours before it was analyzed microbiologically and fermentation was started.
The examples were carried out with a yeast cream obtained by separating yeast from a fermented sugar cane mush from a sugar cane ethanol production mill that operates with fed-batch fermentation and yeast recycle. The yeast cream was diluted with water to a yeast cell content of about 27% by weight. The pH of the diluted yeast cream was 4.0.
In example 6, equilibrium peroxyacetic acid PERACLEAN® 15 of Evonik was added to the diluted yeast cream in an amount of 50 mg/l and the resulting treated yeast concentrate was kept at 30° C. for 2.3 hours before it was analyzed microbiologically.
In example 8, the pH of the diluted yeast cream was adjusted as in example 7, equilibrium peroxyacetic acid PERACLEAN® 15 of Evonik was added to the acidified diluted yeast cream in an amount of 50 mg/l and the resulting treated yeast concentrate was kept at 30° C. for 2.0 hours before it was analyzed microbiologically.

[1] = Example 9, fermenter 2, day 3, 60 ppm to yeast treatment tank during days 3 and 4, pH 1.84 to 2.02
[2] = Example 9, fermenter 2, day 5, after addition (60 ppm, days 3 and 4) was stopped
[3] = Example 9, fermenter 4, day 3, 60 ppm to yeast treatment tank during days 3 and 4, pH 1.84 to 2.02
[4] = Example 10, fermenter 2, day 7, 49 ppm lowered stepwise to 20 ppm to yeast treatment tank during days 6 and 7, pH 1.97 to 2.60
[5] = Example 10, fermenter 2, day 8, after dosing during days 6 and 7
[6] = Example 10, fermenter 2, day 9, after dosing during days 6 and 7
[7] = Example 10, fermenter 3, day 7, 49 ppm lowered stepwise to 20 ppm to yeast treatment tank during days 6 and 7, pH 1.97 to 2.60
[8] = Example 10, fermenter 3, day 8, after dosing during days 6 and 7
[9] = Example 10, fermenter 3, day 9, after dosing during days 6 and 7
[10] = Example 11, fermenter 3, day 2, 50 ppm then 30 ppm to yeast cream recovery tank on days 2 and 3, pH 3.0 to 3.3
[11] = Example 11, fermenter 3, day 4, after recovery tank dosing, 30 ppm to yeast treatment tank for 18 h, pH about 2.0
[12] = Example 11, fermenter 6, day 3, 50 ppm then 30 ppm to yeast cream recovery tank on days 2 and 3, pH 3.0 to 3.3
[13] = Example 2, 50 ppm, pH 1.8, fermented mash after 21 h
[14] = Example 2, 50 ppm, pH 1.8, treated yeast concentrate, 30° C. 1.7 hours
[15] = Example 4, 60 ppm, pH 1.8, fermented mash after 19 h
[16] = Example 4, 60 ppm, pH 1.8, treated yeast concentrate, 30° C. 2 hours
[17] = Example 6, 50 mg/l, no pH adjustment (pH 4.17), treated yeast concentrate, 30° C. 2.3 hours
[18] = Example 8, 50 mg/l, pH adjusted to 2.0 with sulfuric acid (pH 2.40), treated yeast concentrate, 30° C. 2.0 hours

## CC(=O)OO [peroxyacetic acid]
Yeast; [1]
  Yeast flocculation in %: 53%
  Yeast viability in %: 79%
Yeast; Example 9, fermenter 2, day 4, 60 ppm to yeast treatment tank during days 3 and 4, pH 1.84 to 2.02
  Yeast flocculation in %: 5%
Yeast; [2]
  Yeast flocculation in %: 58%
  Yeast viability in %: 82%
Yeast; [3]
  Yeast flocculation in %: 63%
  Yeast viability in %: 85%
Yeast; Example 9, fermenter 4, day 4, 60 ppm to yeast treatment tank during days 3 and 4, pH 1.84 to 2.02
  Yeast flocculation in %: 0%
Yeast; Example 9, fermenter 4, day 6, after addition (60 ppm, days 3 and 4) was stopped
  Yeast flocculation in %: 55%
Yeast; Example 10, fermenter 2, day 6, 49 ppm lowered stepwise to 20 ppm to yeast treatment tank during days 6 and 7, pH 1.97 to 2.60
  Yeast flocculation in %: 0%
Yeast; [4]
  Yeast flocculation in %: 0%
  Yeast viability in %: 75%
Yeast; [5]
  Yeast flocculation in %: 0%
  Yeast viability in %: 79%
Yeast; [6]
  Yeast flocculation in %: 37%
  Yeast viability in %: 79%
Yeast; Example 10, fermenter 3, day 6, 49 ppm lowered stepwise to 20 ppm to yeast treatment tank during days 6 and 7, pH 1.97 to 2.60
  Yeast flocculation in %: 0%
Yeast; [7]
  Yeast flocculation in %: 0%
  Yeast viability in %: 70%
Yeast; [8]
  Yeast flocculation in %: 0%
  Yeast viability in %: 78%
Yeast; [9]
  Yeast flocculation in %: 45%
  Yeast viability in %: 84%
Yeast; [10]
  Yeast flocculation in %: 38%
  Yeast viability in %: 82%
Yeast; [11]
  Yeast flocculation in %: 0%
  Yeast viability in %: 76%
Yeast; Example 11, fermenter 3, day 6, after the dosing periods
  Yeast flocculation in %: 66%
Yeast; Example 11, fermenter 6, day 2, 50 ppm then 30 ppm to yeast cream recovery tank on days 2 and 3, pH 3.0 to 3.3
  Yeast flocculation in %: 0%
Yeast; [12]
  Yeast flocculation in %: 0%
  Yeast viability in %: 89%
Yeast; Example 11, fermenter 6, day 5, after the dosing periods
  Yeast flocculation in %: 65%
Rod bacteria; [13]
  Infection rate in %: 2.6%
  Rod bacteria cells/ml: 6.1*10^6 cells/ml
Rod bacteria; [14]
  Infection rate in %: 0.5%
  Rod bacteria cells/ml: 2.9*10^6 cells/ml
Rod bacteria; [15]
  Infection rate in %: 0.1%
  Rod bacteria cells/ml: 0.22*10^6 cells/ml
Rod bacteria; [16]
  Infection rate in %: 0.3%
  Rod bacteria cells/ml: 1.8*10^6 cells/ml
Rod bacteria; [17]
  Infection rate in %: 8.3%
  Rod bacteria cells/ml: 68*10^6 cells/ml
Rod bacteria; [18]
  Infection rate in %: 1.7%
  Rod bacteria cells/ml: 14*10^6 cells/ml
Rod bacteria; pH not adjusted to the claimed range by addition of acid (table 5)
  effectiveness of treatment of the yeast concentrate against bacterial contamination: ineffective
Rod bacteria; table 5, Examples 5 to 8
  combined effect of pH adjustment with mineral acid and peroxyacetic acid addition: synergistic effect
Rod bacteria; treatment of the yeast concentrate at pH 1.8 before using it for the fermentation
  bacterial contamination of the fermented mash: effective in preventing bacterial contamination
